The compounds below were run on YAP/TAZ-TEAD transcription (assay: Reporter gene assay for measuring the inhibition of YAP/TAZ-TEAD transcription (TEAD-responsive element luciferase reporter in Hek293T cells)). Settings: Hek293T cells transiently transfected with TEAD-responsive element luciferase reporter; 24 hours incubation.
Format: cell-based
Procedure: Hek293T cells are cultured in DMEM supplemented with 10% fetal bovine serum, Sodium pyruvate, Sodium bicarbonate, L-glutamine. The cells are harvested and transiently transfected with TEAD-responsive element luciferase reporter. Transfected cells are plated in 384-wells plate containing pre-diluted compounds. After 24 hours incubation at 37° C./5% CO2, assay plates were cooled down to RT and levelled to an equal volume per well, prior to the addition of 25 uL luciferase substrate SteadyLite (Perkin Elmer)/well. The plate was shaken for 10 min at 600 rpm, centrifuged for 1 min at 500 rpm and measured with an Envision reader (PerkinElmer). The amount of relative light units produced by the TEAD reporter is used to calculated percent of inhibition. The percent of reporter inhibition was calculated in the presence of a positive control inhibitor (100% inhibition) versus a condition with the presence of the vehicle basal activity of the reporter (0% inhibition). The ability of a test compound to inhibit this activity was determined as: Percentage inhibition=[[…]((RLU determined in the presence of vehicle−RLU determined for sample with test compound present) divided by (RLU determined in the presence of vehicle−RLU determined for sample with positive control inhibitor))]*100
The activities of example compounds tested are depicted in the table below. The activity ranges A, B and C refer to IC50 values in the reporter gene assay as follows: “A”: IC50<1 μM; “B”: 1 μM≤IC50≤20 μM and “C”: IC50>20 μM; NT=not tested.
An IC50 of 1000 to 20000 nM was found for C=CC(=O)NCC1Cc2c(CC(=O)O)cccc2N(c2ccc(C(F)(F)F)cc2)C1 (centres unmarked) [Cpd. No. 161-En2, 2-(3-(acrylamidomethyl)-1-(4-(trifluoromethyl)phenyl)-1,2,3,4-tetrahydroquinolin-5-yl)acetic acid] in this work.
An IC50 of 1000 to 20000 nM was found for OCCCNC1Cc2ccccc2N(c2ccc(C(F)(F)F)cc2)C1 (single isomer, unassigned) [045-En1, (R)- or (S)-3-((1-(4-(trifluoromethyl)phenyl)-1,2,3,4-tetrahydroquinolin-3-yl)amino)propan-1-ol] in this work.
An IC50 of over 20000 nM was found for C=CC(=O)NCC1Cc2c(C(=O)NS(C)(=O)=O)cccc2N(c2ccc(C(F)(F)F)cc2)C1 (single isomer, unassigned) [157-En1, (R)- or (S)-3-(acrylamidomethyl)-N-(methylsulfonyl)-1-(4-(trifluoromethyl)phenyl)-1,2,3,4-tetrahydroquinoline-5-carboxamide] in this work.

Same assay, conditions: Homo sapiens, HEK-293T, 24 h, Hek293T cells transiently transfected with TEAD-responsive element luciferase reporter; 24 hours incubation
An IC50 of under 1000 nM was found for C=CC(=O)NC1Cc2c(C(=O)O)cccc2N(c2ccc(C(F)(F)F)cc2)C1 (centres unmarked) [compound 079, 3-acrylamido-1-(4-(trifluoromethyl)phenyl)-1,2,3,4-tetrahydroquinoline-5-carboxylic acid] in this work.
An IC50 of under 1000 nM was found for C=CC(=O)NCC1Cc2ccccc2N(c2cnc(C(F)(F)F)nc2)C1 (centres unmarked) [compound 115, N-((1-(2-(trifluoromethyl)pyrimidin-5-yl)-1,2,3,4-tetrahydroquinolin-3-yl)methyl)acrylamide] in this work.
An IC50 of under 1000 nM was found for C=CC(=O)NC1Cc2ccccc2N(c2cc(F)ccc2F)C1 (centres unmarked) [compound 026, N-(1-(2,5-difluorophenyl)-1,2,3,4-tetrahydroquinolin-3-yl)acrylamide] in this work.
An IC50 of 1000 to 20000 nM was found for N#CCNC1Cc2ccccc2N(c2ccc(C(F)(F)F)cc2)C1 (centres unmarked) [compound 054, 2-((1-(4-(trifluoromethyl)phenyl)-1,2,3,4-tetrahydroquinolin-3-yl)amino)acetonitrile] in this work.
An IC50 of under 1000 nM was found for C=CC(=O)NC1Cc2ccccc2N(c2ccccc2)C1 (centres unmarked) [compound 002, N-(1-phenyl-1,2,3,4-tetrahydroquinolin-3-yl)acrylamide] in this work.
An IC50 of under 1000 nM was found for C=CC(=O)NC1Cc2ccccc2N(C2CCCCC2)C1 (centres unmarked) [compound 013, N-(1-cyclohexyl-1,2,3,4-tetrahydroquinolin-3-yl)acrylamide] in this work.
An IC50 of under 1000 nM was found for C=CC(=O)NCC1Cc2ccccc2N(c2cccc(F)c2)C1 (centres unmarked) [compound 108, N-((1-(3-fluorophenyl)-1,2,3,4-tetrahydroquinolin-3-yl)methyl)acrylamide] in this work.
An IC50 of over 20000 nM was found for O=C(O)CNC1Cc2ccccc2N(c2ccc(C(F)(F)F)cc2)C1 (centres unmarked) [compound 044, (1-(4-(trifluoromethyl)phenyl)-1,2,3,4-tetrahydroquinolin-3-yl)glycine] in this work.
An IC50 of under 1000 nM was found for CCC(=O)NCC1Cc2ccccc2N(c2ccc(C(F)(F)F)cc2)C1 (centres unmarked) [compound 098, N-((1-(4-(trifluoromethyl)phenyl)-1,2,3,4-tetrahydroquinolin-3-yl)methyl)propionamide] in this work.
An IC50 of under 1000 nM was found for C=CC(=O)NC1Cc2c(NC(C)=O)cccc2N(c2ccc(C(F)(F)F)cc2)C1 (centres unmarked) [compound 076, N-(5-acetamido-1-(4-(trifluoromethyl)phenyl)-1,2,3,4-tetrahydroquinolin-3-yl)acrylamide] in this work.
An IC50 of under 1000 nM was found for C=CC(=O)NC1Cc2ccccc2N(Cc2ccccc2)C1 (centres unmarked) [Cpd. No. 174, N-(1-benzyl-1,2,3,4-tetrahydroquinolin-3-yl)acrylamide] in this work.
An IC50 of over 20000 nM was found for C=CC(=O)NCC1Cc2c(C(=O)O)cccc2N(c2ccc(C(F)(F)F)cc2)C1 (centres unmarked) [Cpd. No. 156, 3-(acrylamidomethyl)-1-(4-(trifluoromethyl)phenyl)-1,2,3,4-tetrahydroquinoline-5-carboxylic acid] in this work.
An IC50 of under 1000 nM was found for C=CC(=O)NC1Cc2ccccc2N(c2ccc(OC(F)F)cc2)C1 (centres unmarked) [compound 022, N-(1-(4-(difluoromethoxy)phenyl)-1,2,3,4-tetrahydroquinolin-3-yl)acrylamide] in this work.
An IC50 of under 1000 nM was found for C=CC(=O)NC1Cc2c(CN3CCOCC3)cccc2N(c2ccc(C(F)(F)F)cc2)C1 (centres unmarked) [compound 068, N-(5-(morpholinomethyl)-1-(4-(trifluoromethyl)phenyl)-1,2,3,4-tetrahydroquinolin-3-yl)acrylamide] in this work.
An IC50 of under 1000 nM was found for C=CC(=O)NC1Cc2c(Cc3ccccc3)cccc2N(c2ccc(C(F)(F)F)cc2)C1 (centres unmarked) [compound 066, N-(5-benzyl-1-(4-(trifluoromethyl)phenyl)-1,2,3,4-tetrahydroquinolin-3-yl)acrylamide] in this work.
An IC50 of over 20000 nM was found for O=S(=O)(O)CCNCC1Cc2ccccc2N(c2ccc(C(F)(F)F)cc2)C1 (centres unmarked) [compound 183, 2-(((1-(4-(trifluoromethyl)phenyl)-1,2,3,4-tetrahydroquinolin-3-yl)methyl)amino)ethane-1-sulfonic acid] in this work.
An IC50 of 1000 to 20000 nM was found for CNS(=O)(=O)CCNCC1Cc2ccccc2N(c2ccc(C(F)(F)F)cc2)C1 (centres unmarked) [compound 124, N-methyl-2-(((1-(4-(trifluoromethyl)phenyl)-1,2,3,4-tetrahydroquinolin-3-yl)methyl)amino)ethane-1-sulfonamide] in this work.
An IC50 of under 1000 nM was found for C=CC(=O)NCC1Cc2ccccc2N(C(=O)c2ccccc2)C1 (centres unmarked) [compound 177, N-((1-benzoyl-1,2,3,4-tetrahydroquinolin-3-yl)methyl)acrylamide] in this work.
An IC50 of under 1000 nM was found for C=CC(=O)NC1Cc2c(ccnc2N)N(c2ccc(C(F)(F)F)cc2)C1 (centres unmarked) [compound 146, N-(5-amino-1-(4-(trifluoromethyl)phenyl)-1,2,3,4-tetrahydro-1,6-naphthyridin-3-yl)acrylamide] in this work.
An IC50 of over 20000 nM was found for CCC(=O)NCC1CCc2ccccc2N1c1ccc(C(F)(F)F)cc1 (centres unmarked) [compound 188, N-((1-(4-(trifluoromethyl)phenyl)-1,2,3,4-tetrahydroquinolin-2-yl)methyl)propionamide] in this work.
An IC50 of under 1000 nM was found for C=CC(=O)NCC1Cc2ccccc2N(c2ccc(F)c(F)c2)C1 (centres unmarked) [compound 101, N-((1-(3,4-difluorophenyl)-1,2,3,4-tetrahydroquinolin-3-yl)methyl)acrylamide] in this work.
An IC50 of under 1000 nM was found for CN(C)C/C=C/C(=O)NCC1Cc2ccccc2N(c2ccc(C(F)(F)F)cc2)C1 (centres unmarked) [compound 120, (E)-4-(dimethylamino)-N-((1-(4-(trifluoromethyl)phenyl)-1,2,3,4-tetrahydroquinolin-3-yl)methyl)but-2-enamide] in this work.
An IC50 of under 1000 nM was found for C=CC(=O)NC1Cc2ccccc2N(c2ccc(OC)cc2)C1 (centres unmarked) [compound 007, N-(1-(4-methoxyphenyl)-1,2,3,4-tetrahydroquinolin-3-yl)acrylamide] in this work.
An IC50 of under 1000 nM was found for C=CC(=O)NCC1CCc2ccccc2N1c1ccc(C(F)(F)F)cc1 (centres unmarked) [Cpd. No. 178, N-((1-(4-(trifluoromethyl)phenyl)-1,2,3,4-tetrahydroquinolin-2-yl)methyl)acrylamide] in this work.
An IC50 of under 1000 nM was found for C=CC(=O)NCC1Cc2ccccc2N(c2ccc(OC(F)(F)F)cc2)C1 (centres unmarked) [compound 106, N-((1-(4-(trifluoromethoxy)phenyl)-1,2,3,4-tetrahydroquinolin-3-yl)methyl)acrylamide] in this work.
An IC50 of under 1000 nM was found for C=CC(=O)NC1Cc2ccccc2N(S(=O)(=O)c2ccc(C(F)(F)F)cc2)C1 (centres unmarked) [compound 187, N-(1-((4-(trifluoromethyl)phenyl)sulfonyl)-1,2,3,4-tetrahydroquinolin-3-yl)acrylamide] in this work.
An IC50 of under 1000 nM was found for OCCNC1Cc2ccccc2N(c2ccc(C(F)(F)F)cc2)C1 (centres unmarked) [compound 043, 2-((1-(4-(trifluoromethyl)phenyl)-1,2,3,4-tetrahydroquinolin-3-yl)amino)ethan-1-ol] in this work.
An IC50 of under 1000 nM was found for C=CC(=O)NC1Cc2ccccc2N(c2ccc(F)cc2F)C1 (centres unmarked) [compound 036, N-(1-(2,4-difluorophenyl)-1,2,3,4-tetrahydroquinolin-3-yl)acrylamide] in this work.
An IC50 of under 1000 nM was found for C=CC(=O)NC1Cc2c(CN)cccc2N(c2ccc(C(F)(F)F)cc2)C1 (centres unmarked) [compound 138, N-(5-(aminomethyl)-1-(4-(trifluoromethyl)phenyl)-1,2,3,4-tetrahydroquinolin-3-yl)acrylamide] in this work.
An IC50 of 1000 to 20000 nM was found for OCCCNC1Cc2ccccc2N(c2ccc(C(F)(F)F)cc2)C1 (centres unmarked) [compound 045, 3-((1-(4-(trifluoromethyl)phenyl)-1,2,3,4-tetrahydroquinolin-3-yl)amino)propan-1-ol] in this work.
An IC50 of 1000 to 20000 nM was found for C=CC(=O)NC1Cc2ccccc2N(c2cccc(NC(C)=O)c2)C1 (centres unmarked) [compound 015, N-(1-(3-acetamidophenyl)-1,2,3,4-tetrahydroquinolin-3-yl)acrylamide] in this work.
An IC50 of over 20000 nM was found for CC(C)(C)OC(=O)NC1Cc2c(Br)cccc2N(c2ccc(C(F)(F)F)cc2)C1 (centres unmarked) [compound 055, tert-butyl (5-bromo-1-(4-(trifluoromethyl)phenyl)-1,2,3,4-tetrahydroquinolin-3-yl)carbamate] in this work.
An IC50 of under 1000 nM was found for C=CC(=O)NC1Cc2ccccc2N(c2ccc(-c3ccccc3)cc2)C1 (centres unmarked) [compound 008, N-(1-([1,1′-biphenyl]-4-yl)-1,2,3,4-tetrahydroquinolin-3-yl)acrylamide] in this work.
An IC50 of 1000 to 20000 nM was found for C=CC(=O)NC1Cc2ccccc2N(c2ccc3[nH]ccc3c2)C1 (centres unmarked) [compound 016, N-(1-(1H-indol-5-yl)-1,2,3,4-tetrahydroquinolin-3-yl)acrylamide] in this work.
An IC50 of under 1000 nM was found for C=CC(=O)NCC1Cc2ccccc2N(c2ccc(OC)cc2)C1 (centres unmarked) [compound 091, N-((1-(4-methoxyphenyl)-1,2,3,4-tetrahydroquinolin-3-yl)methyl)acrylamide] in this work.
